Results: EP1984353B1, “AURORA KINASE MODULATORS AND METHOD OF USE” (Amgen, Inc, priority 2006, dated 2007)
Read-outs that look alike come from different tables or passages of the source.

Tests used:
AuroraA-TPX2 = target: T1, AuroraA-TPX2 (Homo sapiens, UniProt O14965); assay: AuroraA-TPX2 Homogeneous Time Resolved Fluorescent (HTRF) kinase assay; type: biochemical; conditions: average, read-out: AurA/TP X2_ IC50_IP (Avg)
T1 construct: 20 µL of AuroraA-TPX2 KD GST; GST
T1 sequence (O14965 133-383 limits assumed): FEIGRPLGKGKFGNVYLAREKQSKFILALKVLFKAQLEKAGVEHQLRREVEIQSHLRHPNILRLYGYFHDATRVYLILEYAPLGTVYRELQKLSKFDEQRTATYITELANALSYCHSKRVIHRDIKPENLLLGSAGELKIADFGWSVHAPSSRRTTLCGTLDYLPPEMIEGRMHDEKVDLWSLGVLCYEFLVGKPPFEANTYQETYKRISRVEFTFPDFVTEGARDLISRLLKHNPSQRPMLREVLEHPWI
T1 sequence (Q9ULW0 1-43 partner limits assumed): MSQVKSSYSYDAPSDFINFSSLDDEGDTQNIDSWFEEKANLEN
Summary of the method: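 HTRF read-out: europium anti-phosphoPLK antibody (0.02 nM) plus streptavidin-APC detect phosphorylated biotin-PLK after EDTA stop and overnight equilibration. Kinase step runs about 120 min with Aurora-A/TPX2, ATP and roughly 1 µM PLK peptide at pH 7.5 HEPES buffer with Mg2+ and DTT.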

[1] = system: phosphorylation of Histone H3; assay: HeLa cell 1-hour phospho-histone assay; type: cell-based; conditions: Homo sapiens, HeLa, 1 h, HeLa cells, 1 hour, average, read-out: pHH3 EC50_IP (Avg)
Experimental: HeLa cell 1-hour phospho-histone assay
The purpose of this assay is to test the inhibitory effect of Aurora compounds with respect to phosphorylation of Histone H3 in the cellular context. HeLa cells (9x10^4/well) are plated in black 96-well flat-bottom tissue culture plates and incubated for 40 hours prior to compound addition. Compounds are serially diluted in DMSO, followed by dilution into MEM containing […] HEPES; 10ul/well of diluted compounds are added to cells (0.5% DMSO final). Cells are incubated for 1 hour at 37 °C in 5% CO2. Cells are then fixed with 3.7% formaldehyde for 10 minutes, washed with wash buffer (1% goat serum and 0.1% Tween 20 in PBS), then permeabilized with 0.5% Triton X in PBS for 15 minutes. After washing with wash buffer, cells are incubated with primary antibody (Upstate #06-507 anti-phospho-histone (Ser 10) antibody (pHH3) for 1 hour at 10ug/ml. After 2 washes with wash buffer, cells are incubated with secondary antibody (Molecular Probes #A11034 goat anti-rabbit Alexa-488 for 1 hour at 1ug/ml + Hoechst 33342 nuclear dye at 1ug/ml (Molecular Probes). Cells are washed 2 times with wash buffer, and buffer replaced with PBS. Plates are scanned on the Cellomics Array Scan (6 fields, ~2000 cells/well) and % of cells that are pHH3 positive were calculated using the Cellomics algorithm.

AuroraB = target: T2, AuroraB (Homo sapiens, UniProt Q96GD4); assay: AuroraB Homogeneous Time Resolved Fluorescent (HTRF) kinase assay; type: biochemical; conditions: average, read-out: AurB_ _IC50_IP (Avg)
T2 construct: 20 µL of AuroraB FL His; His
Summary of the method: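 HTRF read-out: after EDTA stop and ~60 min with europium anti-phospho-H3 antibody and streptavidin-APC, 655/615 nm ratio reports phosphorylation. Reaction: 400 pM AuroraB FL His, 23 µM ATP (at Km(app)), 0.1 µM biotin-Histone H3 peptide, 50 mM HEPES pH 7.5, MgCl/MnCl, ~90 min.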

[2] = given as numbers, unit inferred

T2 sequence (Q96GD4 whole entry): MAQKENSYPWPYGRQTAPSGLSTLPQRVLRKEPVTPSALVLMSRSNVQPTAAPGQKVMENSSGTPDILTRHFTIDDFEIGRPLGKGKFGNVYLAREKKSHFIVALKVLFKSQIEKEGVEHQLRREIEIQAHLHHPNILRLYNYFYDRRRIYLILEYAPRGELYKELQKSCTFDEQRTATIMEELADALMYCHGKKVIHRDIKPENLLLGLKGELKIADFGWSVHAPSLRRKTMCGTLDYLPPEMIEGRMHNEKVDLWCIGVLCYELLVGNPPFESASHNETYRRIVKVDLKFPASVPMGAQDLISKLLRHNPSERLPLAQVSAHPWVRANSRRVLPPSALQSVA

Row | SMILES | IC50 (AuroraA-TPX2; given as class symbols) [nM] | EC50 ([1]; given as class symbols) [nM] | IC50 (AuroraB; given as class symbols) [nM] | IC50 (AuroraA-TPX2; [2]) [nM] | EC50 [1, 2] [nM] | IC50 (AuroraB; [2]) [nM]
1 | Nc1nccc(-c2cccnc2Oc2ccc(Nc3nnc(-c4ccccc4)cc3-c3ccccc3)cc2)n1 [compound 246, N-(4-((3-(2-amino-4-pyrimidinyl)-2-pyridinyl)oxy)phenyl)-4,6-diphenyl-3-pyridazinamine] | 500 to 2500 | 500 to 2500 | ≤ 100 |  |  | 
2 | Nc1nccc(-c2cccnc2Oc2ccc(Nc3nnc(-c4ccc(CCO)cc4)c4ccccc34)cc2)n1 [compound 247, 2-(4-(4-((4-((3-(2-amino-4-pyrimidinyl)-2-pyridinyl)oxy)phenyl)amino)-1-phthalazinyl)phenyl)ethanol] |  |  |  | 19.8 | 335 | 4.2
3 | CNc1nccc(-c2cccnc2Oc2ccc(Nc3nnc(-c4ccccc4)c4ccccc34)nc2)n1 [compound 248, N-(5-((3-(2-(methylamino)-4-pyrimidinyl)-2-pyridinyl)oxy)-2-pyridinyl)-4-phenyl-1-phthalazinamine] |  |  |  | 149 | 465 | 11
4 | Nc1nccc(-c2cccnc2Oc2ccc(Nc3nnc(-c4ccc(CO)cc4)c4ccccc34)cc2)n1 [compound 249, (4-(4-((4-((3-(2-amino-4-pyrimidinyl)-2-pyridinyl)oxy)phenyl)amino)-1-phthalazinyl)phenyl)methanol] | ≤ 100 | 100 to 500 | ≤ 100 |  |  | 
5 | Nc1nccc(-c2cccnc2Oc2ccc(Nc3nnc(-c4ccccc4)c4ccoc34)cc2)n1 [compound 250, N-(4-((3-(2-amino-4-pyrimidinyl)-2-pyridinyl)oxy)phenyl)-4-phenylfuro[2,3-d]pyridazin-7-amine] |  |  |  | 30.3 | 175 | 19.9
6 | Cc1csc(-c2nnc(Nc3ccc(Oc4ncccc4-c4ccnc(N)n4)cc3)c(C)c2C)c1 [compound 259, N-(4-((3-(2-amino-4-pyrimidinyl)-2-pyridinyl)oxy)phenyl)-4,5-dimethyl-6-(4-methyl-2-thienyl)-3-pyridazinamine] |  |  |  | 5.9 | 41.7 | 2.8
7 | Nc1nccc(-c2cccnc2Oc2ccc(Nc3ncc(-c4ccccc4)c4ccccc34)cc2)n1 [compound 260, N-(4-((3-(2-amino-4-pyrimidinyl)-2-pyridinyl)oxy)phenyl)-4-phenyl-1-isoquinolinamine] |  |  |  | 33 | 228 | 14.8
8 | c1ccc(-c2nnc(Nc3ccc(Oc4nccnc4-c4ccncc4)cc3)c3ccccc23)cc1 [compound 261, 4-phenyl-N-(4-((3-(4-pyridinyl)-2-pyrazinyl)oxy)phenyl)-1-phthalazinamine] | 100 to 500 | 500 to 2500 | 100 to 500 |  |  | 
9 | Cc1csc(-c2cnc(Nc3ccc(Oc4ncccc4-c4ccnc(N)n4)cc3)c3ccccc23)c1 [compound 262, N-(4-((3-(2-amino-4-pyrimidinyl)-2-pyridinyl)oxy)phenyl)-4-(4-methyl-2-thienyl)-1-isoquinolinamine] |  |  |  | 34.8 | 334 | 15.8
10 | Nc1nccc(-c2cccnc2Oc2ccc(Nc3nnc(-c4ccccc4)cc3O)cc2)n1 [compound 263, 3-((4-((3-(2-amino-4-pyrimidinyl)-2-pyridinyl)oxy)phenyl)amino)-6-phenyl-4-pyridazinol] | 500 to 2500 | 500 to 2500 | 500 to 2500 |  |  | 
11 | Cc1cc(Br)cnc1Nc1ccc(Oc2ncccc2-c2ccncc2)cc1 [compound 264, N-(4-(3,4'-bipyridin-2-yloxy)phenyl)-5-bromo-3-methyl-2-pyridinamine] |  | 500 to 2500 | 500 to 2500 |  |  | 
12 | Nc1nccc(-c2cccnc2Oc2ccc(Nc3nnc(C4CCCCC4)c4ccccc34)cn2)n1 [compound 274, N-(6-((3-(2-amino-4-pyrimidinyl)-2-pyridinyl)oxy)-3-pyridinyl)-4-cyclohexyl-1-phthalazinamine] | ≤ 100 | ≤ 100 | ≤ 100 |  |  | 
13 | Nc1nccc(-c2cccnc2Oc2ccc(Nc3nnc(N4CCCC(F)C4)c4ccccc34)cc2)n1 (stereo not shown) [compound 278, N-(4-((3-(2-amino-4-pyrimidinyl)-2-pyridinyl)oxy)phenyl)-4-(3-fluoro-1-piperidinyl)-1-phthalazinamine] |  |  |  | 29.9 | 282 | 7.4
14 | CN1CCN(CCCNc2cc(-c3cccnc3Oc3ccc(Nc4nnc(-c5ccccc5)c5ccccc45)cc3)ccn2)CC1 [compound 279, N-(3-(4-methyl-1-piperazinyl)propyl)-2-((4-((4-phenyl-1-phthalazinyl)amino)phenyl)oxy)-3,4'-bipyridin-2'-amine] | 100 to 500 | 100 to 500 | ≤ 100 |  |  | 
15 | Cc1cc(-c2ccccc2)nnc1Nc1ccc(Oc2ncccc2-c2ccnc(NCCCN3CCN(C)CC3)n2)nc1 [compound 280, 4-methyl-N-(6-((3-(2-((3-(4-methyl-1-piperazinyl)propyl)amino)-4-pyrimidinyl)-2-pyridinyl)oxy)-3-pyridinyl)-6-phenyl-3-pyridazinamine] | ≤ 100 | 100 to 500 | ≤ 100 |  |  | 
16 | O=C1Cc2c(-c3cccnc3Oc3ccc(Nc4nnc(-c5ccccc5)c5ccccc45)cc3)ccnc2N1 [compound 281, 4-(2-((4-((4-phenyl-1-phthalazinyl)amino)phenyl)oxy)-3-pyridinyl)-1,3-dihydro-2H-pyrrolo[2,3-b]pyridin-2-one] |  |  |  | 20.4 | 170 | 6.1
17 | Cc1cc(-c2ccccc2)nnc1Nc1ccc(Oc2ncccc2-c2ccnc3c2CC(=O)N3)cc1 [compound 282, 4-(2-((4-((4-methyl-6-phenyl-3-pyridazinyl)amino)phenyl)oxy)-3-pyridinyl)-1,3-dihydro-2H-pyrrolo[2,3-b]pyridin-2-one] | ≤ 100 | 100 to 500 | ≤ 100 |  |  | 
18 | CN(C)Cc1cccc(-c2nnc(Nc3ccc(Oc4ncccc4-c4ccnc(N)n4)cc3)c3ccccc23)c1 [compound 299, N-(4-((3-(2-amino-4-pyrimidinyl)-2-pyridinyl)oxy)phenyl)-4-(3-((dimethylamino)methyl)phenyl)-1-phthalazinamine] | 100 to 500 | 500 to 2500 | ≤ 100 |  |  | 
19 | Cc1n[nH]cc1-c1cccnc1Oc1ccc(Nc2nnc(-c3ccccc3)c3ccccc23)cc1 [compound 300, N-(4-((3-(3-methyl-1H-pyrazol-4-yl)-2-pyridinyl)oxy)phenyl)-4-phenyl-1-phthalazinamine] | 100 to 500 | 100 to 500 | 100 to 500 |  |  | 
20 | Cc1ccc(-c2nnc(Nc3ccc(Oc4ncccc4-c4c[nH]nc4N)cc3)c3ccccc23)cc1 [compound 301, N-(4-((3-(3-amino-1H-pyrazol-4-yl)-2-pyridinyl)oxy)phenyl)-4-(4-methylphenyl)-1-phthalazinamine] |  |  |  | 5.5 | 166 | 3.1
21 | Cc1cc(-c2ccccc2)nnc1Nc1ccc(Oc2ncccc2-c2c[nH]nc2N)cc1 [compound 302, N-(4-((3-(3-amino-1H-pyrazol-4-yl)-2-pyridinyl)oxy)phenyl)-4-methyl-6-phenyl-3-pyridazinamine] | ≤ 100 | 500 to 2500 | ≤ 100 |  |  | 
22 | Nc1n[nH]cc1-c1cccnc1Oc1ccc(Nc2nnc(Cc3ccccc3)c3ccccc23)cc1 [compound 303, N-(4-((3-(3-amino-1H-pyrazol-4-yl)-2-pyridinyl)oxy)phenyl)-4-(phenylmethyl)-1-phthalazinamine] |  |  |  | 3.2 | 729 | 16.6
23 | Cc1csc(-c2nnc(Nc3ccc(Oc4ncccc4-c4ccnc(N)n4)cc3)c3ccccc23)c1 [compound 331, N-(4-((3-(2-amino-4-pyrimidinyl)-2-pyridinyl)oxy)phenyl)-4-(4-methyl-2-thienyl)-1-phthalazinamine] |  | ≤ 100 | ≤ 100 |  |  | 
